According to US20120016011A1, “RNA Interference Mediated Inhibition of Connective Tissue Growth Factor (CTGF) Gene Expression Using Short Interfering Nucleic Acid (siNA)” (Merck Sharp & Dohme Corp., priority 2009, published 2012):
[invAb] = inverted abasic unit; d = 2'-deoxy (DNA); m = 2'-O-methyl; r = 2'-OH (RNA); f = 2'-fluoro

Key:
CTGF mRNA [1] = experiment: CTGF mRNA knockdown (Taqman RT-PCR) after siNA transfection of human NHLF cells; format: cell-based; conditions: 10 nM siNA, 24 hrs, average of 3 experiments, vs non-targeting control
Description: NHLF (Normal human lung fibroblasts; Lonza cat# CC-2512): Cells were cultured at 37° C. in the presence of 5% CO2 and grown in Fibroblast Basal Medium (Lonza cat# CC-3132) supplemented with 2% FBS and growth factors (provided with the kit) and 100 μg/mL of streptomycin and 100 U/mL penicillin.
(§1) Cells were plated in all wells of a tissue-culture treated, 96-well plate at a final count of 5000 cells/well in […], of the appropriate culture media. The cells were cultured for 24 hours after plating at 37° C. in the presence of 5% CO2.
(§2) After 24 hours, complexes containing siNA and RNAiMax were created as follows: A solution of RNAiMax diluted 33-fold in OPTI-MEM was prepared. In parallel, solutions of the siNAs for testing were prepared to a final concentration of 120 nM in OPTI-MEM. After incubation of RNAiMax/OPTI-MEM solution at room temperature for 5 min, an equal volume of the siNA solution and the RNAiMax solution were added together for each of the siNAs.
(§3) This solution was incubated at room temperature for 20 minutes. After incubation, 20 uL of the solution was added to each of the relevant wells. The final concentration of siNA in each well was 10 nM and the final volume of RNAiMax in each well was 0.3 ul.
(§4) The time of incubation with the RNAiMax-siNA complexes was 24 hours and there was no change in media between transfection and harvesting, unless otherwise indicated.
(§5) RNA was extracted from a 96-well plate using the TaqMan® Gene Expression Cells-to-CT™ Kit (Cat# 4399002) with a modified protocol. Briefly, a 60 uL (1 plate) or 110 uL (2 plates) of the Lysis Solution with DNase I was dispensed into each well of the Lysis Buffer Plate (twin.tec full skirt plate). The lysis buffer and stop plates were stored at 4° C. until the cells were washed.
(§6) The plate was spun at 1100 rpm for 5 minutes. The culture medium was aspirated and discarded from the wells of the culture plate. The lysis was performed automatically using a BioMek FX instrument and method. After the Biomek method was completed, the lysis plate was incubated for 2 min. at room temperature. The lysis plate can be stored for 2 hours at 4° C., or at −20° C. or −80° C. for two months.
(§7) Each well of the reverse transcription plate required 10 uL of 2× reverse transcriptase Buffer, 1 uL of 20× reverse transcription enzyme and 2 uL of nuclease-free water. The reverse transcription master mix was prepared by mixing 2× reverse transcription buffer, 20× reverse transcription enzyme mix, and nuclease-free water. 13 uL of the reverse transcription master mix was dispensed into each well of the reverse transcription plate (semi-skirted). A separate reverse transcription plate was prepared for each cell plate. The plate was loaded onto a Biomek NX or Biomek FX Dual -96 and the Biomek method was run. The program is programmed to automatically added 7 uL of lysate from the cell lysis procedure described above into each well of the reverse transcription plate. The plate is sealed and spun on a centrifuge (1000 rpm for 30 seconds) to settle the contents to the bottom of the reverse transcription plate. The plate is placed in a thermocycler at 37° C. for 60 min, 95° C. for 5 min, and 4° C. until the plate is removed from the thermocycler. Upon removal, if not used immediately, the plate was frozen at −20° C.
(§8) A series of probes and primers were used to detect the various mRNA transcripts of the genes of β-Actin (human cell line only), and of CTGF and GAPDH in mouse and human cell lines. All Taqman probes and primers for the experiments here-in described were supplied as pre-validated sets by Applied Biosystems, Inc. (see Table 3).
The assays were performed on an ABI 7900 instrument, according to the manufacturer's instructions. A TaqMan Gene Expression Master Mix (provided in the Cells-to-CT™, Applied Biosystems, Cat # 4399002) was used. The PCR reactions were carried out at 50° C. for 2 min, 95° C. for 20 min followed by 40 cycles at 95° C. for 15 secs and 60° C. for 1 min. […]

CTGF mRNA [2] = experiment: CTGF mRNA knockdown (Taqman RT-PCR) after siNA transfection of mouse NIH 3T3 cells; format: cell-based; conditions: mouse NIH3T3 cells, 10 nM siNA, 24 hrs, average of 3 experiments, vs non-targeting control
Description: NIH 3T3 (mouse; ATCC cat# CRL-1658): Cells were cultured at 37° C. in the presence of 5% CO2 and grown in Dulbecco's modified Eagle's medium (DMEM) with 4 mM L-glutamine adjusted to contain 1.5 g/L sodium bicarbonate and 4.5 g/L glucose and supplemented with fetal bovine serum at a final concentration of 10%, 100 μg/mL of streptomycin, and 100 U/mL penicillin.
as §1, §2, §3, §4, §5, §6, §7, §8
The assays were performed on an ABI 7900 instrument, according to the manufacturer's instructions. A TaqMan Gene Expression Master Mix (provided in the Cells-to-CT™, Applied Biosystems, Cat # 4399002) was used. […]

Substance | % KD Human (CTGF mRNA [1]) | % KD Mouse (CTGF mRNA [2])
48050-DC: siNA duplex; sense SEQ ID NO: 65 B cuGccuGGuccAGAccAcA TTB; antisense SEQ ID NO: 66 UGUGGucuGGAccAGGcAGUU (sense CUGCCUGGUCCAGACCACATT; antisense UGUGGUCUGGACCAGGCAGUU; sense: DNA at AGT, 2'-fluoro at CU, [invAb] at 5' end, 3' end, backbone not given here; antisense: sugars from the 5' end rrrmmfffmmmffmmmfmmmm, backbone not given here) | 3 ± 18% | −13 ± 5%
48051-DC: siNA duplex; sense SEQ ID NO: 67 B GGGuGuGUGAcGAGcccAA TTB; antisense SEQ ID NO: 68 UUGGGcucGucAcAcAcccUU (sense GGGUGUGUGACGAGCCCAATT; antisense UUGGGCUCGUCACACACCCUU; sense: sugars from the 5' end dddfdfddddfdddfffdddd, [invAb] at 5' end, 3' end, backbone not given here; antisense: sugars from the 5' end rrrmmfffmffmfmfmfffmm, backbone not given here) | 15 ± 10% | 14 ± 11%
48052-DC: siNA duplex; sense SEQ ID NO: 69 B GcGAGGucAuGAAGAAGAA TTB; antisense SEQ ID NO: 70 UUCuucuucAuGAccucGcUU (sense GCGAGGUCAUGAAGAAGAATT; antisense UUCUUCUUCAUGACCUCGCUU; sense: DNA at AGT, 2'-fluoro at CU, [invAb] at 5' end, 3' end, backbone not given here; antisense: sugars from the 5' end rrrffffffmfmmffffmfmm, backbone not given here) | 27 ± 16% | 41 ± 4%
48053-DC: siNA duplex; sense SEQ ID NO: 71 B cAGAGAGuGAGAGAcAuuA TTB; antisense SEQ ID NO: 72 UAAuGucucucAcucucuGUU (sense CAGAGAGUGAGAGACAUUATT; antisense UAAUGUCUCUCACUCUCUGUU; sense: DNA at AGT, 2'-fluoro at CU, [invAb] at 5' end, 3' end, backbone not given here; antisense: sugars from the 5' end rrrfmffffffmffffffmmm, backbone not given here) | 45 ± 7% | 26 ± 9%
48054-DC: siNA duplex; sense SEQ ID NO: 73 B GAcuuGAcAGuGGAAcuAc TTB; antisense SEQ ID NO: 74 GUAGuuccAcuGucAAGucUU (sense GACUUGACAGUGGAACUACTT; antisense GUAGUUCCACUGUCAAGUCUU; sense: DNA at AGT, 2'-fluoro at CU, [invAb] at 5' end, 3' end, backbone not given here; antisense: sugars from the 5' end rrrmffffmffmffmmmffmm, backbone not given here) | 70 ± 5% | 17 ± 3%
48056-DC: siNA duplex; sense SEQ ID NO: 77 B cuGuGccuGccAuuAcAAc TTB; antisense SEQ ID NO: 78 GUUGuAAuGGcAGGcAcAGUU (sense CUGUGCCUGCCAUUACAACTT; antisense GUUGUAAUGGCAGGCACAGUU; sense: DNA at AGT, 2'-fluoro at CU, [invAb] at 5' end, 3' end, backbone not given here; antisense: sugars from the 5' end rrrmfmmfmmfmmmfmfmmmm, backbone not given here) | 6 ± 7% | 20 ± 6%
48057-DC: siNA duplex; sense SEQ ID NO: 79 B cuAuuuGAAGuGuAAuuGA TTB; antisense SEQ ID NO: 80 UCAAuuAcAcuucAAAuAGUU (sense CUAUUUGAAGUGUAAUUGATT; antisense UCAAUUACACUUCAAAUAGUU; sense: DNA at AGT, 2'-fluoro at CU, [invAb] at 5' end, 3' end, backbone not given here; antisense: sugars from the 5' end rrrmffmfmffffmmmfmmmm, backbone not given here) | 80 ± 5% | 26 ± 5%
48058-DC: siNA duplex; sense SEQ ID NO: 81 B cAGuGGAAcuAcAuuAGuA TTB; antisense SEQ ID NO: 82 UACuAAuGuAGuuccAcuGUU (sense CAGUGGAACUACAUUAGUATT; antisense UACUAAUGUAGUUCCACUGUU; sense: DNA at AGT, 2'-fluoro at CU, [invAb] at 5' end, 3' end, backbone not given here; antisense: sugars from the 5' end rrrfmmfmfrmffffmffmmm, backbone not given here) | 79 ± 3% | 17 ± 3%
48059-DC: siNA duplex; sense SEQ ID NO: 83 B AcGAAcucAuuAGAcuAuA TTB; antisense SEQ ID NO: 84 UAUAGucuAAuGAGuucGuUU (sense ACGAACUCAUUAGACUAUATT; antisense UAUAGUCUAAUGAGUUCGUUU; sense: DNA at AGT, 2'-fluoro at CU, [invAb] at 5' end, 3' end, backbone not given here; antisense: sugars from the 5' end rrrmmfffmmfmmmfffmfmm, backbone not given here) | 25 ± 9% | 80 ± 4%
48060-DC: siNA duplex; sense SEQ ID NO: 85 B ucuGucAAccucAGAcAcu TTB; antisense SEQ ID NO: 86 AGUGucuGAGGuuGAcAGAUU (sense UCUGUCAACCUCAGACACUTT; antisense AGUGUCUGAGGUUGACAGAUU; sense: DNA at AGT, 2'-fluoro at CU, [invAb] at 5' end, 3' end, backbone not given here; antisense: sugars from the 5' end rrrmfffmmmmffmmfmmmmm, backbone not given here) | 64 ± 8% | 74 ± 3%
48061-DC: siNA duplex; sense SEQ ID NO: 87 B AcucAuuAGAcuAuAAcuu TTB; antisense SEQ ID NO: 88 AAGuuAuAGucuAAuGAGuUU (sense ACUCAUUAGACUAUAACUUTT; antisense AAGUUAUAGUCUAAUGAGUUU; sense: DNA at AGT, 2'-fluoro at CU, [invAb] at 5' end, 3' end, backbone not given here; antisense: sugars from the 5' end rrrffmfmmfffmmfmmmfmm, backbone not given here) | 30 ± 12% | 73 ± 5%
